Source: patent US10611751B2, “Dopamine D1 receptor positive allosteric modulators” (Eli Lilly and Company, priority 2018, dated 2020)

Molecular target: human D1 receptor (Homo sapiens (Human), UniProt P21728)
Assay: Human D1 Receptor PAM Assay (cAMP HTRF, potentiator mode with EC20 dopamine)
Format: cell-based
Conditions: for EC50: HEK293 cells expressing human D1 receptor, 12 nM dopamine (EC20), cAMP, read-out: Abs EC50; for Emax: fitted top of curve, 0% = EC20 dopamine, 100% = 5 μM dopamine, read-out: % Top (% Potentiation)
From the text: The PAM activity of the compounds of the present invention may be measured essentially as described in Svensson et al., An Allosteric Potentiator of the Dopamine D1 Receptor Increases Locomotor Activity in Human D1 Knock-in Mices without Casusing Stereotypy or Tachyphylaxis. J. Pharmacol. Exp. Ther. (2017) 360:117-128.
More specifically, HEK293 cells that stably express the human D1 receptor (Accession number NM_000794) are generated by gene transduction using the pBABE-bleo retroviral vector and selected with Zeocin™ (InvivoGen). At approximately 80% confluency, the cells are harvested using TrypLE™ Express (Gibco), suspended in FBS plus 8% DMSO, and stored in liquid nitrogen. On the day of the assay, cells are thawed and resuspended in STIM buffer (Hanks Balanced Salt Solution supplemented with 0.1% BSA, 20 mM HEPES, 500 μM IBMX, and 100 μM ascorbic acid).
Test compound is serially diluted (1:2) with DMSO into assay plates (ProxiPlate-384 Plus, PerkinElmer) using acoustic dispensing (Labcyte) to provide 20 concentrations for full response curves. […] Plates are incubated at room temperature for a total reaction time of 60 min.
cAMP production is quantified using HTRF® detection (Cisbio) according to the manufacturer's instructions. Generally, lysis buffer containing anti-cAMP cryptate (5 μL) and D2-conjugate (from HTRF® kit) (5 μL) is added to the wells, plates are incubated for an additional 60-90 min, and the time-resolved fluorescence is detected using an EnVision™ plate reader (PerkinElmer). Fluorescence data is converted to cAMP concentrations using a cAMP standard curve and analyzing using a 4-parameter non-linear logistic equation (Genedata Screener, version 13.0.5-standard). For potentiator mode concentration-response curves, results are expressed as percent of the window between a response at EC20 concentration of dopamine alone (normalized to 0%) and the maximum response to dopamine (defined by response to 5 μM dopamine, final concentration, normalized as 100%).
Absolute EC50 values are calculated based on the maximum and minimum responses of the control agonist (dopamine). The % Potentiation (% Top) is determined from the fitted top of the concentration response curve.

Sequence of human D1 receptor (P21728 whole entry): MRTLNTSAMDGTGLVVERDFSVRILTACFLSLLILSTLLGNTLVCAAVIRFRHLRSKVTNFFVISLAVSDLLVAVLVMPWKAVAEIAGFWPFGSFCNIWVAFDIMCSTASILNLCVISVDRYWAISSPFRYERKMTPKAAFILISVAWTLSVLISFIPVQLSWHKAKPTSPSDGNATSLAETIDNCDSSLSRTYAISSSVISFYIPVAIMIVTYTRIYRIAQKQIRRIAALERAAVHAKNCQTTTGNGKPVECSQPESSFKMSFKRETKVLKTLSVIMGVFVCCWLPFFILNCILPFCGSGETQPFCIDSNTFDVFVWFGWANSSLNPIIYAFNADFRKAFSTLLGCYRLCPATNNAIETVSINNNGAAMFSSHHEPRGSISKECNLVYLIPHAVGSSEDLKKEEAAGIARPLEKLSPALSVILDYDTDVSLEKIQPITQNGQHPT

Structure (SMILES)	EC50 [nM]	Emax [%]
C[C@H]1c2cccc(-c3cnn(C4COC4)c3)c2C[C@H](CO)N1C(=O)Cc1c(F)cccc1Cl [Example 6, 2-(2-chloro-6-fluorophenyl)-1-((1S,3R)-3-(hydroxymethyl)-1-methyl-5-(1-(oxetan-3-yl)-1H-pyrazol-4-yl)-3,4-dihydroisoquinolin-2(1H)-yl)ethan-1-one]	42.2	80.4
C[C@H]1c2cccc(-c3cnn(CCO)c3)c2C[C@H](CO)N1C(=O)Cc1ccccc1Cl [Example 5, 1-((1S,3R)-5-(1-(2-(l1-oxidaneyl)ethyl)-1H-pyrazol-4-yl)-3-(hydroxymethyl)-1-methyl-3,4-dihydroisoquinolin-2(1H)-yl)-2-(2-chlorophenyl)ethan-1-one]	18.3	79.1
C[C@H]1c2cccc(-c3cn[nH]c3)c2C[C@H](CO)N1C(=O)Cc1c(F)cccc1F [Example 10, 2-(2,6-difluorophenyl)-1-((1S,3R)-3-(hydroxymethyl)-1-methyl-5-(1H-pyrazol-4-yl)-3,4-dihydroisoquinolin-2(1H)-yl)ethan-1-one]	127	78.1
C[C@H]1c2cccc(-c3cnn(C)c3)c2C[C@H](CO)N1C(=O)Cc1ccccc1Cl [Example 7, 2-(2-chlorophenyl)-1-((1S,3R)-3-(hydroxymethyl)-1-methyl-5-(1-methyl-1H-pyrazol-4-yl)-3,4-dihydroisoquinolin-2(1H)-yl)ethan-1-one]	81.2	82.4
C[C@H]1c2cccc(-c3cn[nH]c3)c2C[C@H](CO)N1C(=O)Cc1c(F)cccc1Cl [Example 9, 2-(2-chloro-6-fluorophenyl)-1-((1S,3R)-3-(hydroxymethyl)-1-methyl-5-(1H-pyrazol-4-yl)-3,4-dihydroisoquinolin-2(1H)-yl)ethan-1-one]	28	81.5
C[C@H]1c2cccc(-c3cn[nH]c3)c2C[C@H](CO)N1C(=O)Cc1cccc(F)c1F [Example 14, 2-(2,3-difluorophenyl)-1-((1S,3R)-3-(hydroxymethyl)-1-methyl-5-(1H-pyrazol-4-yl)-3,4-dihydroisoquinolin-2(1H)-yl)ethan-1-one]	677	72.6
CCn1cc(-c2cccc3c2C[C@H](CO)N(C(=O)Cc2c(Cl)cccc2Cl)[C@H]3C)cn1 [Example 2, 2-(2,6-dichlorophenyl)-1-((1S,3R)-5-(1-ethyl-1H-pyrazol-4-yl)-3-(hydroxymethyl)-1-methyl-3,4-dihydroisoquinolin-2(1H)-yl)ethan-1-one]	172	91.2
C[C@H]1c2cccc(-c3cn[nH]c3)c2C[C@H](CO)N1C(=O)Cc1ccc(F)cc1Cl [Example 12, 2-(2-chloro-4-fluorophenyl)-1-((1S,3R)-3-(hydroxymethyl)-1-methyl-5-(1H-pyrazol-4-yl)-3,4-dihydroisoquinolin-2(1H)-yl)ethan-1-one]	540	77.1
C[C@H]1c2cccc(-c3cn[nH]c3)c2C[C@H](CO)N1C(=O)Cc1ccccc1F [Example 13, 2-(2-fluorophenyl)-1-((1S,3R)-3-(hydroxymethyl)-1-methyl-5-(1H-pyrazol-4-yl)-3,4-dihydroisoquinolin-2(1H)-yl)ethan-1-one]	484	89.8
C[C@H]1c2cccc(-c3cnn(C4CC4)c3)c2C[C@H](CO)N1C(=O)Cc1c(Cl)cccc1Cl [Example 3, 1-((1S,3R)-5-(1-cyclopropyl-1H-pyrazol-4-yl)-3-(hydroxymethyl)-1-methyl-3,4-dihydroisoquinolin-2(1H)-yl)-2-(2,6-dichlorophenyl)ethan-1-one]	287	88.1
C[C@H]1c2cccc(-c3cn[nH]c3)c2C[C@H](CO)N1C(=O)Cc1cc(F)ccc1F [Example 15, 2-(2,5-difluorophenyl)-1-((1S,3R)-3-(hydroxymethyl)-1-methyl-5-(1H-pyrazol-4-yl)-3,4-dihydroisoquinolin-2(1H)-yl)ethan-1-one]	836	75.5
C[C@H]1c2cccc(-c3cn[nH]c3)c2C[C@H](CO)N1C(=O)Cc1cc(F)ccc1Cl [Example 11, 2-(2-chloro-5-fluorophenyl)-1-((1S,3R)-3-(hydroxymethyl)-1-methyl-5-(1H-pyrazol-4-yl)-3,4-dihydroisoquinolin-2(1H)-yl)ethan-1-one]	112	79.8
